Assay results from article PMC3038857, “Using Nuclear Receptor Activity to Stratify Hepatocarcinogens” (PLoS ONE, 2011).
Read-outs that look alike come from different tables or passages of the source.

Columns and labels:
Rat Liver [1] = settings: ref ToxRefDB, cited from earlier work
Rat Liver [2] = settings: ref ToxRefDB, cited from earlier work; remark: listed apart in the source
ABCB11 = experiment: CLZD_ABCB11: Change in expression of ABCB11 (primary human hepatocytes); type: cell-based; settings: 24 hr
Protocol: (§1) This is a collection of multiplexed gene expression assays focused on Phase I and II xenobiotic metabolizing enzymes and transporters. Human primary cell cultures were treated with chemicals at 5 concentrations (0.004-40 [drawing 42] M) for 6, 24 and 48 hr. Concentration- and time-response profiles of chemicals were measured by the expression of key nuclear receptor target genes, activities of CYP1A enzymes (EROD), and cell morphology. Fourteen gene targets were monitored by quantitative nuclease protection assay including: six representative cytochrome P-450 genes, four hepatic transporters, three Phase II conjugating enzymes, and one endogenous metabolism gene involved in cholesterol synthesis. The target genes associated with nuclear receptor pathways are as follows: [drawing 43] and [drawing 44] with [drawing 45]; [drawing 46] , [drawing 47] , [drawing 48] , [drawing 49] , [drawing 50] and [drawing 51] with [drawing 52]; [drawing 53] , [drawing 54] , [drawing 55] and [drawing 56] with [drawing 57]; [drawing 58] with [drawing 59]; and [drawing 60] with [drawing 61] . Assays were run in primary human hepatocyte cultures by CellzDirect Invitrogen Inc. (Durham, NC), in collaboration with EPA.
(§2) Multiplexed Gene Expression in Human Primary Hepatocytes: This is a collection of multiplexed gene expression assays focused on Phase I and II metabolic enzymes and transporters. […] Fourteen gene targets were monitored by quantitative nuclease protection assay: six representative cytochrome P450 genes, four hepatic transporters, three Phase II conjugating enzymes, and one endogenous metabolism gene involved in cholesterol synthesis. Cells were exposed at 5 concentrations (0.004-40 µM) for 6, 24 or 48 hr. Gene targets are sentinels for five nuclear receptor signaling pathways: AhR, CAR, PXR, FXR, and PPARα. All gene are associated with nuclear receptor pathways: CYP1A1 and CYP1A2 with AHR; ABCB1, ABCG2, CYP2B6, CYP2C9, CYP2C19 and UGT1A1 with CAR; CYP3A4, GSTA2, SLCO1B1 and SULT2A1 with PXR; HMGCS2 with PPARA; and ABCB11 with FXR. […] Detailed description of the methods, data and analysis methods for this dataset will be presented in a separate publication.

CYP1A1 = experiment: CLZD_CYP1A1: Change in expression of CYP1A1 (primary human hepatocytes); type: cell-based; settings: 24 hr
Outline: (§3)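 Five-point concentration series (0.004-40 µM) applied to primary human hepatocytes; 6/24/48 hr timepoints; transcript quantified by multiplexed nuclease protection.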

Rat Liver [3] = settings: ref ToxRefDB, cited from earlier work; remark: listed apart in the source
CYP2B6 = experiment: CLZD_CYP2B6: Change in expression of CYP2B6 (primary human hepatocytes); type: cell-based; settings: 24 hr
Outline: as §3

CAR (NR1I3) = target: T1, CAR (NR1I3) (Homo sapiens, UniProt Q14994); experiment: ATG_PBREM_CIS: Factorial reporter gene assay (HepG2); type: cell-based; design: endogenous in cells; host or cells: HepG2
T1 sequence (Q14994 1-352): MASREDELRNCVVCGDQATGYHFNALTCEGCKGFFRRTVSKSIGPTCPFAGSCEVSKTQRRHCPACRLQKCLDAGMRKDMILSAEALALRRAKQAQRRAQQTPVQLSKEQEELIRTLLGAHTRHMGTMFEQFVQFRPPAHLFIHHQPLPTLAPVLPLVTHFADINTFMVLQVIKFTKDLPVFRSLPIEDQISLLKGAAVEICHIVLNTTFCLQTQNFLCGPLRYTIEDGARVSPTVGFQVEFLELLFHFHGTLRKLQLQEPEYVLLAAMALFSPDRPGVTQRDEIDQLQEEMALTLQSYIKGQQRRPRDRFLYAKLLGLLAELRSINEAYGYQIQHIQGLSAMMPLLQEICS
Protocol: (§4) A multiple reporter transcription unit (MRTU) library consisting of 48 transcription factor binding sites was transfected into the HepG2 human liver hepatoma cell line. In addition to the cis-acting reporter genes (CIS), a modification of the approach was used to generate a trans-system (TRANS) with a mammalian one-hybrid assay consisting of an additional 25 MRTU library reporting the activity of nuclear receptor super-family members. […] These assays were performed by Attagene Inc. (Morrisville NC) under contract to EPA.
(§5) In addition to the cis-acting reporter genes (CIS), a modification of the approach was used to generate a trans-system (TRANS) with a mammalian one-hybrid assay consisting of an additional 25 MRTU library reporting the activity of nuclear receptor super-family members. […] Chemicals were then tested in the CIS and TRANS assays at seven concentrations starting at the MTC and followed by three-fold serial dilutions. These assays were performed by Attagene Inc. (Morrisville NC) under contract to EPA. Detailed description of the methods, data and analysis methods for this dataset will be presented in a separate publication.

PXR (NR1I2) = target: T2, PXR (NR1I2) (Homo sapiens, UniProt O75469); experiment: ATG_PXRE_CIS: Factorial reporter gene assay (HepG2); type: cell-based; design: endogenous in cells; host or cells: HepG2
T2 sequence (O75469 1-434): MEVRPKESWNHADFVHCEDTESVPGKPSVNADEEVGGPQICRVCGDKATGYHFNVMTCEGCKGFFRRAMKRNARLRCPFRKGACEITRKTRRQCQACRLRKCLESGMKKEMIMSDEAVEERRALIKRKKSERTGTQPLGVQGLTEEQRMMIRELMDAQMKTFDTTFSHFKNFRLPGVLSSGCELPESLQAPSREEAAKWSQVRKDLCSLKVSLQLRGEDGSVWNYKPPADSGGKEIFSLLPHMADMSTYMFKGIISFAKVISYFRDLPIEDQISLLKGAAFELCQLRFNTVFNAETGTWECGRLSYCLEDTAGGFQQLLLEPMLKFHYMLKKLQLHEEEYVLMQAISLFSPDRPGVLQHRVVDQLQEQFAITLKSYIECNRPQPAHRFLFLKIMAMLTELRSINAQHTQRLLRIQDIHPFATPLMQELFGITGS
Outline: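 Seven concentrations per chemical, three-fold dilutions down from the MTC, were tested in HepG2 hepatoma cells. Those cells carried a multiple reporter transcription unit library, read either as cis transcription-factor-site reporters or as a trans mammalian one-hybrid panel for nuclear receptors.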

ABCB1 = experiment: CLZD_ABCB1: Change in expression of ABCB1 (primary human hepatocytes); type: cell-based; settings: 24 hr
Protocol: as §1, §2

CYP1A2 = experiment: CLZD_CYP1A2: Change in expression of CYP1A2 (primary human hepatocytes); type: cell-based; settings: 24 hr
Outline: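 Read-out: mRNA change by multiplexed quantitative nuclease protection assay. Primary human hepatocytes; 5 concentrations, 0.004-40 µM; exposures 6, 24, 48 hr.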

LXRa (NR1H2) = experiment: NCGC_LXR_Agonist: GAL4 BLAM Reporter gene assay: LXRa; type: cell-based, human; settings: agonist mode
Protocol: These assays measure binding constants and enzyme inhibition values for nuclear receptors. The targets include [drawing 67] , [drawing 68] , [drawing 69] , [drawing 70] , [drawing 71] , [drawing 72] , [drawing 73] , [drawing 74] , [drawing 75] and [drawing 76] . Each of the nuclear receptor targets was measured in agonist mode. Assays were run at the NIH Chemical Genomics Center (Rockville, MD).
Cell-based HTS Assays: These assays measuring binding constants and enzyme inhibition values for nuclear receptors. The targets include AR, ER, FXR, LXR, PPARα, PPARδ, PPARγ, RXRα, RXRβ and PXR. Each of the nuclear receptor targets was measured in both agonist and antagonist mode, but the antagonist data is still undergoing analysis due to possible interference between cytotoxicity and assay activity, so antagonist mode data were not used in the present analysis. Assays were run at the NIH Chemical Genomics Center (Rockville, MD) as part of the Tox21 collaboration. […] The R^2 was required to be ≥0.5. Values where only the highest concentration exceeded 50% activity were excluded to eliminate weak or false positives. Detailed description of the methods, data and analysis methods for this dataset will be presented in a separate publication.

Mouse Liver [4] = settings: chronic study, mouse liver; ref ToxRefDB; cited from earlier work
HMGCS2 = experiment: CLZD_HMGCS2: Change in expression of HMGCS2 (primary human hepatocytes); type: cell-based; settings: 24 hr
Protocol: as §1, §2

CYP3A4 = experiment: CLZD_CYP3A4: Change in expression of CYP3A4 (primary human hepatocytes); type: cell-based; settings: 24 hr
Outline: as §3

Mouse Liver [5] = settings: chronic study, mouse liver; ref ToxRefDB; cited from earlier work; remark: listed apart in the source
Mouse Liver [6] = settings: ref ToxRefDB, cited from earlier work
LXRa (NR1H3) = target: T3, LXRa (NR1H3) (Homo sapiens, UniProt Q13133); experiment: ATG_LXRa_TRANS: Factorial reporter gene assay (HepG2); type: cell-based
T3 construct: expressed in transfected cells; host or cells: HepG2
T3 sequence (Q13133 1-447): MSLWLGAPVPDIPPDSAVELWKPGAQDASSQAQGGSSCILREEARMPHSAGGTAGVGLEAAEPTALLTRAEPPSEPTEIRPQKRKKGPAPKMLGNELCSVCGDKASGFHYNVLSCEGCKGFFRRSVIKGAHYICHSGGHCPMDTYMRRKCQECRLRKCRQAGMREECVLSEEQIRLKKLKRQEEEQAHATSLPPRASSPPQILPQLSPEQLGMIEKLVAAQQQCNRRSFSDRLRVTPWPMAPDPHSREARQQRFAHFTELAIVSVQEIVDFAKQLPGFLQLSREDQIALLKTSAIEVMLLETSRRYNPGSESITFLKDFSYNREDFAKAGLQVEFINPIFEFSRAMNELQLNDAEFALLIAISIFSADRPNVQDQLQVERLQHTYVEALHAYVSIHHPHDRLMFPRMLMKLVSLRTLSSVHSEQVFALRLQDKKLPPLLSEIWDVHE
Protocol: as §4, §5

[7] = target: T4, AHR (aryl hydrocarbon receptor) (Homo sapiens, UniProt P35869); experiment: ATG_Ahr_CIS: Factorial reporter gene assay (multiplexed transcription reporter, HepG2); type: cell-based; settings: HepG2 reporter
T4 construct: endogenous in cells; host or cells: HepG2
T4 sequence (P35869 11-848): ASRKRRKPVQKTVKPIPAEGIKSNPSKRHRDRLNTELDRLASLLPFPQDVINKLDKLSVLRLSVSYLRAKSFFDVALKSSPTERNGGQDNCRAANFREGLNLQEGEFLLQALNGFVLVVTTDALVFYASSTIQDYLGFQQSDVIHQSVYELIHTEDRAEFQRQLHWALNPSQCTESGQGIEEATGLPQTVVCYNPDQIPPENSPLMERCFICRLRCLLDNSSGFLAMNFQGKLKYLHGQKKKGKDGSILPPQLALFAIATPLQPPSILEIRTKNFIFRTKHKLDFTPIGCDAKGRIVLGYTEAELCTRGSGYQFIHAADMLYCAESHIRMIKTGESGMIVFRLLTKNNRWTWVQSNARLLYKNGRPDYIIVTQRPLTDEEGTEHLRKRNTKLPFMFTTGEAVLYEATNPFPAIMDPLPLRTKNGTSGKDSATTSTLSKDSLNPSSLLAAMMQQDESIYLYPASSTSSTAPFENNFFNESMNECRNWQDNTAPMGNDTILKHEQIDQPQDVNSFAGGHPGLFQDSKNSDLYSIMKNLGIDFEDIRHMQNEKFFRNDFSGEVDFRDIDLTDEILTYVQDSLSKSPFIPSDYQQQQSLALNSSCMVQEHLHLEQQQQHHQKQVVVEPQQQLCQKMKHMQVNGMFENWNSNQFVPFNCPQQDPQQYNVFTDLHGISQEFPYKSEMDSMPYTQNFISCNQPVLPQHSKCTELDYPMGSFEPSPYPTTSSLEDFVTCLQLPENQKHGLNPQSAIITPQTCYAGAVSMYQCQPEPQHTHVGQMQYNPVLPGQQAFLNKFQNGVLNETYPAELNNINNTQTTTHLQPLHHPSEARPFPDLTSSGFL
Outline: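 HepG2 cells transfected with multiplexed reporter libraries: cis-acting binding-site reporters (CIS) and a one-hybrid nuclear-receptor trans system (TRANS). Chemicals tested at seven concentrations, starting at the maximum tolerated concentration with three-fold serial dilutions.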

SMILES	CLZD_CYP2B6_24 (CYP2B6)	CHR_Rat_Liver_2_PreneoplasticLesion (Rat Liver [1]; chronic study, rat liver)	CHR_Rat_Liver_3_NeoplasticLesion (Rat Liver [2]; chronic study, rat liver)	NCGC_LXR_Agonist (LXRa (NR1H2))	CHR_Rat_Liver_1_AnyLesion (Rat Liver [3]; chronic study, rat liver)	ATG_PXRE_CIS (PXR (NR1I2); HepG2 reporter)	CHR_Mouse_Liver_2_PreneoplasticLesion (Mouse Liver [4])	CLZD_HMGCS2_24 (HMGCS2)	CLZD_CYP3A4_24 (CYP3A4)	CHR_Mouse_Liver_3_NeoplasticLesion (Mouse Liver [5])	CHR_Mouse_Liver_1_AnyLesion (Mouse Liver [6]; chronic study, mouse liver)	other results
C#CCOS(=O)OC1CCCCC1Oc1ccc(C(C)(C)C)cc1 (stereo not shown) [r259]	5.314	–	–	–	–	–	–	–	–	–	–	CHR_Rat_Liver_2_PreneoplasticLesion (Rat Liver [1]; rat, chronic study): 0; CHR_Rat_Liver_3_NeoplasticLesion (Rat Liver [2]; rat, chronic study): 0; CLZD_ABCB11_24 (ABCB11): 4.813; CLZD_CYP1A1_24 (CYP1A1): 4.821; CHR_Rat_Liver_1_AnyLesion (Rat Liver [3]; rat, chronic study): 0; ATG_PBREM_CIS (CAR (NR1I3); HepG2): 5.854; ATG_PXRE_CIS (PXR (NR1I2); HepG2): 6.18; CLZD_ABCB1_24 (ABCB1): 5.227; CLZD_CYP1A2_24 (CYP1A2): 5.07
CCCOc1nn(C(=O)[N-]S(=O)(=O)c2ccccc2C(=O)OC)c(=O)n1C.[Na+] [r264]	–	0	0	4.648	0	4.252	–	–	–	–	–	–
COc1cc(OC)nc(Sc2cccc(Cl)c2C(=O)[O-])n1.[Na+] [r275]	–	6	0	–	6	–	6	5.29	4.874	6	6	–
CCOC(=O)C(C)Oc1ccc(Oc2cnc3cc(Cl)ccc3n2)cc1 (stereo not shown) [r279]	–	0	0	–	6	4.523	6	5.409	–	6	6	ATG_LXRa_TRANS (LXRa (NR1H3); HepG2 reporter): 4.824
CCCN(CC)CC1COC2(CCC(C(C)(C)C)CC2)O1 (stereo not shown) [r286]	4.532	0	0	–	0	4.886	–	–	5.192	–	–	ATG_Ahr_CIS [7]: 4.444; ATG_PBREM_CIS (CAR (NR1I3); HepG2 reporter): 4.721
O=C(NC(=O)c1c(F)cccc1F)Nc1ccc(OC(F)(F)C(F)OC(F)(F)F)c(Cl)c1 (stereo not shown) [row 223]	–	–	–	4.536	–	–	–	–	–	–	–	CHR_Rat_Liver_2_PreneoplasticLesion (Rat Liver [1]; chronic rat study, liver): 0; CHR_Rat_Liver_3_NeoplasticLesion (Rat Liver [2]; chronic rat study, liver): 0; ATG_LXRa_TRANS (LXRa (NR1H3); HepG2): 4.523; CHR_Rat_Liver_1_AnyLesion (Rat Liver [3]; chronic rat study, liver): 6; CHR_Mouse_Liver_1_AnyLesion (Mouse Liver [6]; chronic mouse study, liver): 6
